Laboratory results reported in patent publication US11304929B2, “Tosylacetate based compounds and derivatives thereof as PHGDH inhibitors” (priority 2017, dated 2022).
Read-outs that look alike come from different tables or passages of the source.

Molecular target: PHGDH (Homo sapiens (Human), UniProt O43175)
Assay: 3-Phosphoglycerate Dehydrogenase (PHGDH) Fluorescence Intensity Assay, run at two NAD/3-PG ratios: PHGDH_HIGH_NAD/3-PG (250 μM NAD/500 μM 3-PG) and PHGDH_500_NAD/3-PG (500 μM NAD/500 μM 3-PG)
Assay type: biochemical
[1] = 250 μM NAD/500 μM 3-PG, read-out: IC50 (PHGDH_HIGH_NAD/3-PG)
[2] = 500 μM NAD/500 μM 3-PG, read-out: IC50 (PHGDH_500_NAD/3-PG)

PHGDH, sequence (O43175 2-533 limits assumed): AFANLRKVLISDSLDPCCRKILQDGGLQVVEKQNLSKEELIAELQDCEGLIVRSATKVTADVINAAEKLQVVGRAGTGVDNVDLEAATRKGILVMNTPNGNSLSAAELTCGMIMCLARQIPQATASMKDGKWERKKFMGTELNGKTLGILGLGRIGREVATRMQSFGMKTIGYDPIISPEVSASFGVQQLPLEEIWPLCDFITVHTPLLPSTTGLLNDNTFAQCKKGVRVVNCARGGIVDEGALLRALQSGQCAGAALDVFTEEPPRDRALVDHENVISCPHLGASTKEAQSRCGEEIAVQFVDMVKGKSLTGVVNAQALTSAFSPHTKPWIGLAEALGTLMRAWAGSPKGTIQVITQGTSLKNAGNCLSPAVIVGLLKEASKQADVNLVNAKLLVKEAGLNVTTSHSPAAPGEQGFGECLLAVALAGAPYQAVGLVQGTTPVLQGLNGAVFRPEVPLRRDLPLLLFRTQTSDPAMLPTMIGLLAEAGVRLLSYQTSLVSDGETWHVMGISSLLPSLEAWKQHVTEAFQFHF
Text: This assay is used to identify compounds which inhibit the enzymatic activity of PHGDH which catalyzes the reaction of 3-Phosphoglycerate (3-PG) and NAD to 3-Phosphohydroxypyruvate and NADH.
The produced NADH is used in a coupled reaction for Diaphorase mediated reduction of Resazurin to Resorufin which can be measured in a Fluorescence Intensity readout.
The full length version of PHGDH enzyme was expressed in E. coli with an N-terminal HIS-tag and a TEV cleavage site.
The 3-Phosphoglycerate substrate was purchased from Sigma. NAD, Diaphorase and Resazurin were purchased from Sigma Aldrich.
Compounds are dispensed onto assay plates (black, low volume, flat bottom 384 well, Corning) using an Access Labcyte Workstation with the Labcyte Echo 55× from a DMSO solution. For the chosen highest assay concentration of 100 μM, 150 nl of compound solution are transferred from a 10 mM DMSO compound stock solution. A series of 11 concentrations (10 1:5 steps) is transferred for each compound.
The assay has been performed at two different NAD/3-PG ratios (final assay concentrations):
Plates are kept at room temperature. After 240 minutes incubation time the fluorescence signal is measured in a PerkinElmer Envision HTS Multilabel Reader with an excitation wavelength at 530-560 nm and an emission wavelength at 590 nm.
Each plate contains negative controls (diluted DMSO instead of test compound; reaction as described with PHGDH protein) and positive controls (diluted DMSO instead of test compound; reaction as described with buffer instead of PHGDH protein). Negative and positive control values are used for normalization.
IC50 values are calculated and analyzed in the MEGALAB IC50 application using a 4 parametric logistic model.

Cc1cc(Cl)c2cc(C(=O)N[C@H](C)c3ccc(S(=O)(=O)CC(=O)OCC4CC4)cc3)n(C)c2c1 [Example 09-016, cyclopropylmethyl 2-{4-[(1R)-1-[(4-chloro-1,6-dimethyl-1H-indol-2-yl)formamido]ethyl]benzenesulfonyl}acetate]
IC50 [1]: 2100 nM

Cc1cc(Cl)c2cc(C(=O)N[C@H](C)c3ccc(S(=O)(=O)CC(=O)OC(C)(C)C)cc3)n(C)c2c1 [Example 01-014, tert-butyl 2-{4-[(1R)-1-[(4-chloro-1,6-dimethyl-1H-indol-2-yl)formamido]ethyl]benzenesulfonyl}acetate]
IC50 [1]: 4250 nM

C[C@@H](NC(=O)c1cc(-c2ccc(F)cc2)nn1C)c1ccc(S(=O)(=O)C2(C(=O)O)CCOCC2)cc1 [Example 08-003, 4-{4-[(1R)-1-{[3-(4-fluorophenyl)-1-methyl-1H-pyrazol-5-yl]formamido}ethyl]benzenesulfonyl}oxane-4-carboxylic acid]
IC50 [1]: 139 nM

CCCCOC(=O)CS(=O)(=O)c1ccc([C@@H](C)NC(=O)c2cc3c(Cl)cc(C)cc3n2C)cc1 [Example 09-009, butyl 2-{4-[(1R)-1-[(4-chloro-1,6-dimethyl-1H-indol-2-yl)formamido]ethyl]benzenesulfonyl}acetate]
IC50 [1]: 3740 nM

Cc1cc2c(cc(C(=O)N[C@H](CO)c3ccc(S(=O)(=O)C(C)(C)C(=O)O)cc3)n2C)c(Cl)c1Cl [Example 07-014, 2-{4-[(1S)-1-[(4,5-dichloro-1,6-dimethyl-1H-indol-2-yl)formamido]-2-hydroxyethyl]benzenesulfonyl}-2-methylpropanoic acid]
IC50 [1]: 4 nM
IC50 [2]: 6 nM

Cc1cc2c(cc(C(=O)N[C@H](CO)c3ccc([S+]([O-])CC(=O)OC(C)C)cc3)n2C)c(F)c1F (stereo partly drawn) [Example 13-010, propan-2-yl 2-{4-[(1S)-1-[(4,5-difluoro-1,6-dimethyl-1H-indol-2-yl)formamido]-2-hydroxyethyl]benzenesulfinyl}acetate]
IC50 [2]: 1060 nM

Cc1cc(Cl)c2cc(C(=O)N[C@H](C)c3ccc(S(=O)(=O)CC(=O)OCCOC(=O)C(C)(C)C)cc3)n(C)c2c1 [Example 09-023, 2-[(2-{4-[(1R)-1-[(4-chloro-1,6-dimethyl-1H-indol-2-yl)formamido]ethyl]benzenesulfonyl}acetyl)oxy]ethyl 2,2-dimethylpropanoate]
IC50 [1]: 1800 nM

COCCC(C(=O)O)S(=O)(=O)c1ccc([C@@H](C)NC(=O)c2cc3c(Cl)cc(C)cc3n2C)cc1 (stereo partly drawn) [Example 07-010, 2-{4-[(1R)-1-[(4-chloro-1,6-dimethyl-1H-indol-2-yl)formamido]ethyl]benzenesulfonyl}-4-methoxybutanoic acid]
IC50 [1]: 21 nM

CCOC(=O)CS(=O)(=O)c1ccc(CNC(=O)c2cc3c(Cl)cc(C)cc3n2C)cc1 [Example 01-032, ethyl 2-(4-{[(4-chloro-1,6-dimethyl-1H-indol-2-yl)formamido]methyl}benzenesulfonyl)acetate]
IC50 [1]: 5940 nM

COC(=O)C1(S(=O)(=O)c2ccc([C@@H](C)NC(=O)c3cc(-c4ccc(F)cc4)nn3C)cc2)CCCC1 [Example 06-003, methyl 1-{4-[(1R)-1-{[3-(4-fluorophenyl)-1-methyl-1H-pyrazol-5-yl]formamido}ethyl]benzenesulfonyl}cyclopentane-1-carboxylate]
IC50 [1]: 11700 nM

COC(=O)C[S+]([O-])c1ccc([C@@H](CO)NC(=O)c2cc3c(Cl)c(Cl)c(C)cc3n2C)cc1 (stereo partly drawn) [Example 11-004, methyl 2-{4-[(1S)-1-[(4,5-dichloro-1,6-dimethyl-1H-indol-2-yl)formamido]-2-hydroxyethyl]benzenesulfinyl}acetate]
IC50 [1]: 98 nM
IC50 [2]: 196 nM

Cc1cc(Cl)c2cc(C(=O)N[C@H](C)c3ccc([S@@+]([O-])CC(=O)O)cc3)n(C)c2c1 [Example 12-006, 2-[(S)-4-[(1R)-1-[(4-chloro-1,6-dimethyl-1H-indol-2-yl)formamido]ethyl]benzenesulfinyl]acetic acid]
IC50 [1]: 61 nM
IC50 [2]: 95 nM

Cc1cc2c(cc(C(=O)N[C@H](CO)c3ccc(S(=O)(=O)CC(=O)OCC(C)(C)CO)cc3)n2C)c(Cl)c1Cl [Example 09-044, 3-hydroxy-2,2-dimethylpropyl 2-{4-[(1S)-1-[(4,5-dichloro-1,6-dimethyl-1H-indol-2-yl)formamido]-2-hydroxyethyl]benzenesulfonyl}acetate]
IC50 [2]: 419 nM

Cc1cc(Cl)c2cc(C(=O)N[C@H](C)c3ccc(S(=O)(=O)CC(=O)O[C@H]4CCOC4)cc3)n(C)c2c1 [Example 09-018, (3S)-oxolan-3-yl 2-{4-[(1R)-1-[(4-chloro-1,6-dimethyl-1H-indol-2-yl)formamido]ethyl]benzenesulfonyl}acetate]
IC50 [1]: 418 nM

Cc1cc(Cl)c2cc(C(=O)N[C@H](C)c3ccc(S(=O)(=O)C4(C(=O)O)CCCC4)cc3)n(C)c2c1 [Example 07-004, 1-{4-[(1R)-1-[(4-chloro-1,6-dimethyl-1H-indol-2-yl)formamido]ethyl]benzenesulfonyl}cyclopentane-1-carboxylic acid]
IC50 [1]: 6 nM

C#Cc1cc(Cl)c2cc(C(=O)NC(C)c3ccc(S(=O)(=O)CC(=O)O)cc3)n(C)c2c1 (centres unmarked) [Example 03-007, 2-(4-{1-[(4-chloro-6-ethynyl-1-methyl-1H-indol-2-yl)formamido]ethyl}benzenesulfonyl)acetic acid]
IC50 [1]: 29 nM

Cc1cc(Cl)c2cc(C(=O)N[C@H](CO)c3ccc([S+]([O-])CC(=O)O)cc3)n(C)c2c1 (stereo partly drawn) [Example 12-007, 2-{4-[(1S)-1-[(4-chloro-1,6-dimethyl-1H-indol-2-yl)formamido]-2-hydroxyethyl]benzenesulfinyl}acetic acid]
IC50 [1]: 8 nM
IC50 [2]: 11 nM

CCOC(=O)C(C)(C)S(=O)(=O)c1ccc([C@@H](C)NC(=O)c2cc3c(Cl)c(Cl)c(C)nc3n2C)cc1 [Example 05-016, ethyl 2-{4-[(1R)-1-({4,5-dichloro-1,6-dimethyl-1H-pyrrolo[2,3-b]pyridin-2-yl}formamido)ethyl]benzenesulfonyl}-2-methylpropanoate]
IC50 [1]: > 100000 nM

Cc1cc2c(cc(C(=O)N[C@H](CO)c3ccc(S(=O)(=O)CC(=O)OC4CCOCC4)cc3)n2C)c(F)c1F [Example 09-037, oxan-4-yl 2-{4-[(1S)-1-[(4,5-difluoro-1,6-dimethyl-1H-indol-2-yl)formamido]-2-hydroxyethyl]benzenesulfonyl}acetate]
IC50 [2]: 578 nM

C[C@@H](NC(=O)c1cc(-c2ccc(F)cc2)nn1C)c1ccc(S(=O)(=O)CC(=O)OCCO)cc1 [Example 10-005, 2-hydroxyethyl 2-{4-[(1R)-1-{[3-(4-fluorophenyl)-1-methyl-1H-pyrazol-5-yl]formamido}ethyl]benzenesulfonyl}acetate]
IC50 [1]: 766 nM

CCC(C(=O)O)S(=O)(=O)c1ccc([C@@H](C)NC(=O)c2cc3c(Cl)cc(C)cc3n2C)cc1 (stereo partly drawn) [Example 07-011, 2-{4-[(1R)-1-[(4-chloro-1,6-dimethyl-1H-indol-2-yl)formamido]ethyl]benzenesulfonyl}butanoic acid]
IC50 [1]: 11 nM

Cc1cc2c(cc(C(=O)N[C@H](CO)c3ccc(S(=O)(=O)CC(=O)OCC(C)(C)CO)cc3)n2C)c(F)c1F [Example 09-042, 3-hydroxy-2,2-dimethylpropyl 2-{4-[(1S)-1-[(4,5-difluoro-1,6-dimethyl-1H-indol-2-yl)formamido]-2-hydroxyethyl]benzenesulfonyl}acetate]
IC50 [2]: 509 nM
